Experimental data as given in patent US5789188A, “Tetracycline-efflux pump inhibitor screening methods” (priority 1996, dated 1998).
Converted amounts (≈) assume the structure as drawn. “Also recorded” adds a separate entry of the source. Non-standard residues stand in square brackets, D forms with d. Residues, ends and D or L forms follow the SMILES beside them. Orn(N5-OH,N5-Ac) = CC(=O)N(O)CCC[C@H](N)C(=O)O

What was measured:
strain KB3ind [1] = type: cell-based, E. coli; conditions: for response in the Tetracycline Assay (β-galactosidase induction): strain KB3ind, plate assay (plate or liquid assay)
Protocol: (§1) To detect tetracyclines, a plate assay is developed that is similar to one described previously (11). Cells are grown in Luria Broth (adjusted with NaOH to pH 7.5) with 25 μg/ml of kanamycin to a cell density of 0.5 absorbance units (600 nm). A 25 ml sample of the culture is harvested by centrifugation and resuspended in 1 ml of broth. The cells are mixed with 25 ml of soft agar (1%, wt/vol) and poured onto 100 ml of LB (pH 7.5)+ kanamycin, within a 22 cm^2 NUNC plate (Corning). Samples are applied by spotting from 2 to 15 μl, or by applying a disc impregnated with a compound, and the plate is incubated for 3-4 hours at 37° C. The plates are overlaid with a solution containing 13.5 mg of 6-bromo-2-naphthyl-β-D-galactopyranoside side and 86.5 mg of fast blue RR (Sigma) dissolved in 2 ml of dimethylsulfoxide, to which 25 ml of soft agar is added. β-Galactosidase is detected by the presence of a purple spot.

[2] = system: E. coli MC1061 containing pGG57; test: microbe, parasite or virus in culture; type: cell-based; conditions: Escherichia coli, read-out: MIC (LD 90) of Maximally Induced tetK, pGG57
Protocol: (§2) E. coli MC1061 containing either pGG57, pCBSal or pGG75 were used to determine the MIC (LD 90) for tetracycline as well as six tetracycline analogs. […] MIC studies were performed in the presence of 0.01 mM IPTG for E. coli MC1061 containing pGG57. […] All of these MIC studies were done in duplicate.

[3] = system: E. coli MC1061 containing pCBSal; test: MIC (LD 90) of maximally induced tetA (plasmid pCBSal); type: cell-based; conditions: Escherichia coli, read-out: MIC (LD 90) of Maximally Induced tetA, pCBSal
Protocol: as §2

[4] = system: E. coli MC1061 containing pGG75; test: MIC (LD 90) of maximally induced tetC (plasmid pGG75); type: cell-based; conditions: Escherichia coli, read-out: MIC (LD 90) of Maximally Induced tetC, pGG75
Protocol: as §2

NK5031 (λStet158-50) = test: Plate assay with control strain containing the cI wild type allele; type: cell-based, E. coli; conditions: 3 μl samples, up to 22.5 ng bleomycin, 150 ng mitomycin C or cinodine
[5] = system: tetracycline efflux pump (strain KB4 or KB5); test: Inhibition Assay, plate assay (agar with 5 ng/ml of tetracycline); for Inhibition Assay response: key: ±: Possible positive; +: Weak positive; ++: Stronger positive; -: Negative; type: cell-based, E. coli; conditions: for response in the Inhibition Assay: 5 ng/ml of tetracycline
Protocol: as §1
Two assays are developed for detecting inhibitors of the tetA gene product (using strain KB5), or the tetK gene product (using strain KB4). In the Inhibition Assay, cells of strain KB4 or KB5 are treated as described in the tetracycline screen above, except that the agar medium contains 5 ng/ml of tetracycline. Alternatively a Liquid Assay is also developed. Cells are first grown in LB (pH 7.5). Then cells are shifted to medium containing 5 ng/ml of tetracycline, and tetracycline-containing samples are added to aliquots. Cells are then incubated and assayed as described for the Tetracycline Assay. […] However, the intracellular concentration is reduced in tetracycline resistant strains due to the action of the efflux pump, so more tetracycline would be required in the medium to accumulate sufficient tetracycline inside the cell to induce. The Inhibition Assay is designed to detect compounds that cause β-galactosidase induction in the presence of sub-inducing levels of tetracycline for a resistant strain.

strain KB4 or KB5 [6] = test: Synergy Assay, plate assay (agar with 5 μg/ml of tetracycline); type: cell-based, E. coli; conditions: for response in the Synergy Assay: 5 μg/ml of tetracycline
Protocol: Two types of assays for pump inhibitors are designed using this type of screening organism. The first is a Synergy Assay, which determines the ability of a compound or composition to kill the organism in combination with tetracycline. […] In brief, in a Synergy Assay, the screening cells are treated as described above for the tetracycline assay, except that the agar medium contains 5 μg/ml of tetracycline which is near the MIC for the strains to be used in the screen. […] Alternatively, cells are treated as described above for the tetracycline liquid assay, except that cells are shifted to a medium containing 5 μg/ml of tetracycline.
(§3) In the Synergy Assay, cells are treated as above for the plate assay, except that agar medium contains 5 μg/ml of tetracycline, near the MIC for strain KB4 or KB5. […] Alternatively, cells are treated as above for the liquid assay, except that cells are shifted to medium containing 5 μg/ml of tetracycline.

strain KB4 or KB5 [7] = test: Synergy Assay, liquid assay (5 μg/ml of tetracycline); type: cell-based, E. coli; conditions: liquid culture
Protocol: Inhibitory activity is assayed in liquid culture by growing strain KB4 in medium lacking tetracycline and then transferring to medium containing 5 ng/ml of tetracycline, a sub-inducing level of tetracycline due to the action of the efflux pump. Nocardamine is also added as indicated. After 4 generations of growth, the specific activity of β-galactosidase is determined in Miller Units (10). […] Alternatively, aliquots of KB4 are transferred to a medium containing 5 μg/ml of tetracycline and the nocardamine concentration indicated.
as §3

strain KB4 = test: Growth in LB medium with nocardamine, strain KB4; type: cell-based, E. coli; conditions: strain KB4, 5 μg/ml of tetracycline
Protocol: (§4) Cells are grown in LB medium lacking tetracycline, as described in the text, and then aliquots are added to medium containing no tetracycline, or a sub-inhibitory concentration for the particular strain. Nocardamine (μg/ml) is present or absent as indicated.

strain KB3ind [8] = test: Growth in LB medium with nocardamine, strain KB3ind; type: cell-based, E. coli; conditions: tetracycline-sensitive strain KB3ind, 0.5 μg/ml of tetracycline
Protocol: FIG. 10 (Parts A, B and C) illustrates the effect of nocardamine on the growth of tetracycline sensitive and resistant cells. Cells are grown in LB medium lacking tetracycline, as described in the text, and then aliquots are added to medium containing no tetracycline, or a sub-inhibitory concentration for the particular strain. Nocardamine (μg/ml) is present or absent as indicated. For strain KB3ind, the tetracycline-sensitive strain, the sub-inhibitory concentration of tetracycline is 0.5 μg/ml. For the Tn10 derivative of strain KB3ind, 20 μg/ml of tetracycline is the sub-inhibitory level. For strain KB4, the modestly tetracycline-resistant organism, 5 μg/ml of tetracycline is the sub-inhibitory concentration.

[9] = system: Tn10 derivative of strain KB3ind; test: Growth in LB medium with nocardamine, Tn10 strain; type: cell-based, E. coli; conditions: for effect on growth in combination with tetracycline: Tn10 strain, 20 μg/ml or 25 μg/ml of tetracycline; for effect on growth, tetracycline absent: no tetracycline in medium
Protocol: as §4
Throughout, for Induction Assay response: key: ±: Possible positive; +: Weak positive; ++: Stronger positive; -: Negative.

Compound | response in the Tetracycline Assay (β-galactosidase induction) (strain KB3ind [1]) | MIC [2] [µg/mL] | MIC [3] [µg/mL] | MIC [4] [µg/mL] | response in the Synergy Assay (strain KB4 or KB5 [6]) | response in the Inhibition Assay ([5]; plate assay) | further results
CN(C)[C@@H]1C(=O)C(C(N)=O)=C(O)[C@@]2(O)C(=O)C3=C(O)c4c(O)cccc4C[C@H]3C[C@@H]12 [6-demethyl 6-deoxyTc, 6-demethyl-6-deoxytetracycline] | capable of detecting | 7 (≈ 16.9 µM) | 20 (≈ 48.3 µM) | 20 (≈ 48.3 µM) |  |  | 
Cc1c2c(c(O)c3c(O)cccc13)C(=O)C1(O)C(O)=C(C(N)=O)C(=O)C(N(C)C)C1C2 (centres unmarked) [AnhydroTc] |  | 2 (≈ 4.69 µM) | 3 (≈ 7.04 µM) | 2 (≈ 4.69 µM) |  |  | 
CN(C)[C@@H]1C(O)=C(C(N)=O)C(=O)[C@@]2(O)C(O)=C3C(=O)c4c(O)ccc(Cl)c4[C@@](C)(O)[C@H]3C[C@@H]12 [ChlorTc, chlortetracycline] | capable of detecting | 40 (≈ 83.5 µM) | 50 (≈ 104 µM) | 40 (≈ 83.5 µM) |  |  | 
C[C@H]1c2cccc(O)c2C(O)=C2C(=O)[C@]3(O)C(O)=C(C(N)=O)C(=O)[C@@H](N(C)C)[C@@H]3[C@@H](O)[C@@H]21 [DoxyTc, doxycycline] | capable of detecting | 7 (≈ 15.8 µM) | 40 (≈ 90 µM) | 20 (≈ 45 µM) |  |  | 
CN(C)c1ccc(O)c2c1C[C@H]1C[C@H]3[C@H](N(C)C)C(O)=C(C(N)=O)C(=O)[C@@]3(O)C(O)=C1C2=O [Minocycline] | capable of detecting | 4 (≈ 8.74 µM) | 14 (≈ 30.6 µM) | 8 (≈ 17.5 µM) |  |  | 
CO[C@@]12[C@H](COC(N)=O)C3=C(C(=O)C(C)=C(N)C3=O)N1C[C@@H]1N[C@@H]12 [Mitomycin] | No β-galactosidase is detected |  |  |  |  |  | β-galactosidase induction in control strain (cI wild type allele) (NK5031 (λStet158-50)): inducing β-galactosidase; Induction Assay response (strain KB3ind [1]): -; Inhibition Assay response ([5]; disc on assay plate): -
C/C(=C/C(=O)N([O-])CCCC1NC(=O)CNC(=O)C(CO)NC(=O)C(CO)NC(=O)C(CCCN([O-])C(=O)/C=C(/C)CC(=O)O)NC(=O)C(CCCN([O-])C(=O)/C=C(\C)CC(=O)O)NC1=O)CC(=O)O.[Fe+3] (centres unmarked) [ferrichromeA] |  |  |  |  | test positive | test positive | 
CC(=O)N([O-])CCC[C@@H]1NC(=O)CNC(=O)CNC(=O)CNC(=O)[C@H](CCCN([O-])C(C)=O)NC(=O)[C@H](CCCN([O-])C(C)=O)NC1=O.[Fe+3] [ferrichrome] (cyclo(GGG[Orn(N5-OH,N5-Ac)][Orn(N5-OH,N5-Ac)][Orn(N5-OH,N5-Ac)])) |  |  |  |  | test positive | test positive | 
CCCCc1ccc(C(=O)O)nc1 [fusaric acid] |  |  |  |  | do not test positive | do not test positive | 
O=C1CCC(=O)N(O)CCCCCNC(=O)CCC(=O)N(O)CCCCCNC(=O)CCC(=O)N(O)CCCCCN1 [nocardamine] | no response |  |  |  | differential growth inhibition | induction | effect on β-galactosidase production / growth (strain KB4 or KB5 [7]): marked decrease in β-galactosidase; also recorded: growth inhibition; effect on growth in combination with tetracycline (strain KB4): severe growth inhibition; effect on growth in combination with tetracycline (strain KB3ind [8]): affects the growth; also recorded: is affected; effect on growth in combination with tetracycline [9]: severe growth inhibition; also recorded: inhibits growth; effect on growth in combination with tetracycline ([9]; listed as Nocardamine): inhibits the growth; effect on growth, tetracycline absent [9]: little or no effect; effect on growth, tetracycline absent ([9]; listed as Nocardamine): little effect; response in the Synergy Assay (strain KB4 or KB5 [6]; listed as Nocardamine): detected; amount sufficient to detect activity in the Synergy Assay (strain KB4 or KB5 [6]; strains KB4 and KB5): One; response in the Inhibition Assay ([5]; plate assay, listed as Nocardamine): detected; amount sufficient to detect activity in the Inhibition Assay ([5]; plate assay, strains KB4 and KB5): One
CN(C)C1C(=O)C(C(N)=O)=C(O)C2(O)C(=O)C3=C(O)c4c(O)cccc4C(C)(O)C3C(O)C12 (centres unmarked) [oxyTc] |  | 250 (≈ 543 µM) | > 300 | 300 (≈ 652 µM) |  |  | 
bleomycin | No β-galactosidase is detected |  |  |  |  |  | β-galactosidase induction in control strain (cI wild type allele) (NK5031 (λStet158-50)): inducing β-galactosidase
cinodine | No β-galactosidase is detected |  |  |  |  |  | β-galactosidase induction in control strain (cI wild type allele) (NK5031 (λStet158-50)): inducing β-galactosidase
